Experimental data published in US6066649A, “Drug for cardiovascular diseases” (Podzuweit; Thomas, priority 1992, dated 2000).
Read-outs that look alike come from different tables or passages of the source. Each block holds one compound with its values, some of them ahead of it.

Tests used:
cGMP-stimulated PDE II [1] = target: T1, cGMP-stimulated PDE II (Homo sapiens, UniProt O00408); experiment: Test for PDE activity, inhibition of cytosolic cGMP-stimulated PDE II from human myocardium; assay type: biochemical
T1 construct: cytosolic cGMP-stimulated PDE II isoenzyme from human myocardium; from tissue; host or cells: human left ventricular papillary muscle, soluble extract, DEAE-Sepharose CL-6B peak fraction
From the text: (§1) Samples of the left ventricular papillary muscles were obtained with the consent of patient who underwent an exchange of a mitral flap in the Universitats-Krankenhaus Gieβen, FRG. The myocardium samples of pigs (male pigs of the German breed of swine, 25 to 30 kg body weight) were obtained following excision of the hearts under Nembutal anesthesia. The samples were immediately frozen in liquid nitrogen and were then pulverized in a high speed mill and pre-cooled in liquid nitrogen. […] All of the following steps were conducted at 4° C. The homogenate was centrifuged at 48,000 g for 30 minutes. […] The column was washed with 200 ml of buffer; and the PDE activities were eluted with a linear gradient ranging from 0.05 to 1 M of sodium acetate in buffer (flow time of the gradient: 500 minutes). The flow rate was 1 ml/min. 5 ml fractions were obtained and tested for PDE activity.
(§2) The PDE activity was measured with an off line liquid scintillation spectrometry using HPLC. […] The enzyme activity was measured at 25° C. with 10 minute incubations. The reaction was started with the addition of 50 μl of enzyme solution and terminated through injection of 20 μl of 60% perchloric acid. Aliquots of 20 μl of acidic supernatant were siphoned off and injected into an automated HPLC system (column LiChrospher RP-18e) (250×4 mm; 5 μm packing).
(§3) The data were fitted with four parameters with the aid of the sigmoidal logistic function.
(§4) The soluble PDE isoenzymes from swine and human myocardium were severed by means of anion exchange chromatography using DEAE-sepharose CL-6B. The enzyme activities were called PDE I to IV according to the nomenclature of J. A. Beavo and D. H. Reifsnyder. The PDE II activity was stimulated by means of cGMP (1 μM).

cGMP-stimulated PDE II [2] = target: T2, cGMP-stimulated PDE II (Sus scrofa, UniProt F1SUV3); experiment: Test for PDE activity, inhibition of soluble cGMP-stimulated PDE II from swine myocardium; assay type: biochemical; details: 1 μM cAMP or cGMP substrate, 25° C., pH 7.5
T2 construct: soluble cGMP-stimulated PDE II from swine myocardium; from tissue; host or cells: myocardium of male German breed swine, soluble extract, DEAE-Sepharose CL-6B peak fraction
T2 sequence (F1SUV3 1-945): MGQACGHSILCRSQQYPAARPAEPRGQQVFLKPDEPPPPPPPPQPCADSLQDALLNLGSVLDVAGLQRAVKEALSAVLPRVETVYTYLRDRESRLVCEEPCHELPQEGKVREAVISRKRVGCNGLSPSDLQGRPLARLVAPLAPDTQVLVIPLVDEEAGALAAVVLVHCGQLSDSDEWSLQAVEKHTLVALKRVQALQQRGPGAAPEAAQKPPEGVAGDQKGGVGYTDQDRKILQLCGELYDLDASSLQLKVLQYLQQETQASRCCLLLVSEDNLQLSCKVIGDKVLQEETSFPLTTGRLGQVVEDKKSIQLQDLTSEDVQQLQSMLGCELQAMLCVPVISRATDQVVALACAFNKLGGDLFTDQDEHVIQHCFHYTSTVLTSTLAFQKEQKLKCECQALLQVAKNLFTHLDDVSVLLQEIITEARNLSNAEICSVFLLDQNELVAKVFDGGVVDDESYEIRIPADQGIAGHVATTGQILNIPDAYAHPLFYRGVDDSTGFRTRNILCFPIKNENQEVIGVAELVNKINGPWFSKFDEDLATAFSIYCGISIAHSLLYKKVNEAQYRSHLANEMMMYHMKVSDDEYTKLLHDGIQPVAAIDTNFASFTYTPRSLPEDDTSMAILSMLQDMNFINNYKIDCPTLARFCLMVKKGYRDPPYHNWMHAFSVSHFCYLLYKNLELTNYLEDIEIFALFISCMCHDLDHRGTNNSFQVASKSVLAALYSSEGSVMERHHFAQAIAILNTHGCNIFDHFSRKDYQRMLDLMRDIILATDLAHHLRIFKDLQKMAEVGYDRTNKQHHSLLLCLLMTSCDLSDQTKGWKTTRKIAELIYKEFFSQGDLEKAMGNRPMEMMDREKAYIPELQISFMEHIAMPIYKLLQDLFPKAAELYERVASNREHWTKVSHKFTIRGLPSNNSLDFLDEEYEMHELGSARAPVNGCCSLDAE
From the text: (§5) Samples of the left ventricular papillary muscles were obtained with the consent of patient who underwent an exchange of a mitral flap in the Universitats-Krankenhaus Gieβen, FRG. The myocardium samples of pigs (male pigs of the German breed of swine, 25 to 30 kg body weight) were obtained following excision of the hearts under Nembutal anesthesia. The samples were immediately frozen in liquid nitrogen and were then pulverized in a high speed mill and pre-cooled in liquid nitrogen. The frozen tissue powder was sieved through a screen made of stainless steel (-196° C.) (mesh size: 0.315 mm) in an homogenizing buffer (4° C.) (1 ml per 100 mg of powder), comprising (final concentrations): 20 mM of bis-tris, 2 mM of EDTA, 5 mM of 2-mercaptoethanol, 2 mM of benzamidine, 50 μM of phenylmethylsulfonylfluoride, 50 mM of sodium acetate, pH 6.5. All of the following steps were conducted at 4° C. The homogenate was centrifuged at 48,000 g for 30 minutes. […]
(§6) The PDE activity was measured with an off line liquid scintillation spectrometry using HPLC. […] The enzyme activity was measured at 25° C. with 10 minute incubations. […]
(§7) The radioactive substrates and the products of the PDE reaction were determined quantitatively using a RACKBETA 1219 liquid scintillation counter (LKB Wallac, Freiburg, FRG). […]

[3] = test system: other cyclic nucleotide phosphodiesterases; experiment: Test for PDE activity, inhibition of the other cyclic nucleotide phosphodiesterases from swine myocardium; assay type: biochemical; details: 1 μM cAMP or cGMP substrate, 25° C., pH 7.5
From the text: as §5, §6, §7

adenosine deaminase [4] = details: ADA and cGMP-stimulated PDE
adenosine deaminase [5] = details: cited from earlier work; for inhibition of adenosine deaminase: in words
human ADA = details: read-out: K1 value for human ADA; racemic (±)-EHNA; cited from earlier work
ADA = details: in words; cited from earlier work
PDE I = experiment: Test for PDE activity, inhibition of soluble PDE I from human myocardium; assay type: biochemical; details: 1 μM cAMP or cGMP substrate, 25° C., pH 7.5
From the text: as §5, §6, §7

arrhythmias = experiment: Antiarrhythmic action; details: in words; no test data given
[6] = cited from earlier work
[7] = test system: cGMP content of the rat aorta; details: as a function of the dose; cited from earlier work
mouse, rat and rabbit = details: cited from earlier work
cGMP-stimulated PDE II [8] = experiment: Test for PDE activity, inhibition of cytosolic cGMP-stimulated PDE II from human myocardium; assay type: biochemical; details: cGMP 1 μM; in words; swine and human myocardium
From the text: as §1, §2, §3, §4

T1 sequence (O00408 1-920 isoform O00408-2): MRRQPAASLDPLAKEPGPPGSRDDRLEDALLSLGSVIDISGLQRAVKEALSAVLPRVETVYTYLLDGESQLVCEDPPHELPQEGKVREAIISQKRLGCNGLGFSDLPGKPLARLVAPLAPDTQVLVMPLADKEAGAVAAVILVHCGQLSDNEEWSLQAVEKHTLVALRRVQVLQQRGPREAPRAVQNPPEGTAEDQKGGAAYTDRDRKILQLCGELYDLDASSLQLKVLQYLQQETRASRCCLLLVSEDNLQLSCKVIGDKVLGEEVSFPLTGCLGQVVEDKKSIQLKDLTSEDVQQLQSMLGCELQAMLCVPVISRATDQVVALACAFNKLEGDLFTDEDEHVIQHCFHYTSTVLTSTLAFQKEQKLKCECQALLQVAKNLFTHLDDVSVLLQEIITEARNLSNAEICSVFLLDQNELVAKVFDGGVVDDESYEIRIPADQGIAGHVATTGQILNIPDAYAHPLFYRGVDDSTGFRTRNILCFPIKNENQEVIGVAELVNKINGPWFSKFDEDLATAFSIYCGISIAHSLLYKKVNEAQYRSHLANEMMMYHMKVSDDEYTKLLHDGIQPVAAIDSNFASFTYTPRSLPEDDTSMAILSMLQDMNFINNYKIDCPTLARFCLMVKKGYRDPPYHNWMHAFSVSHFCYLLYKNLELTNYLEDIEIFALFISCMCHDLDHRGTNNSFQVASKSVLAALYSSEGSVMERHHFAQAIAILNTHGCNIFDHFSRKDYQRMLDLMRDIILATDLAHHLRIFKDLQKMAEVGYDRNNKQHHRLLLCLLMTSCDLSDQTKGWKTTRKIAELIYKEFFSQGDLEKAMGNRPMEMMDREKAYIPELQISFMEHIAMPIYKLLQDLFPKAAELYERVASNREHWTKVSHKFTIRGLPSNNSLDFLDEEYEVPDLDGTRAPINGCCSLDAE

- inhibition of the cGMP-stimulated enzyme at the concentration at which inhibition of the PDE isotypes I, III and IV began (cGMP-stimulated PDE II [1]; human myocardium): more than 99%
- IC50 (cGMP-stimulated PDE II [1]; human myocardium, 1 μM cAMP or cGMP substrate, 25° C., pH 7.5): 800 nM
- activity as inhibitor of PDE II compared with papaverine, on a molar basis (cGMP-stimulated PDE II [1]; in words): more active
- IC50 (cGMP-stimulated PDE II [2]): 2000 nM
- IC50 [3]: > 100000 nM
- doses having inhibiting effects on both enzymes (adenosine deaminase and cGMP-stimulated PDE) (adenosine deaminase [4]): more than 10^-7 M
Structure (SMILES): CCCCCC[C@H]([C@H](C)O)n1cnc2c(N)ncnc21 (relative stereo) [EHNA, erythro-9-(2-hydroxy-3-nonyl)-adenine]
- Ki (adenosine deaminase [5]; classical competitive inhibition, first bonding step, read-out: inhibition constant K1 of the initial bonding step): 200 nM
- Ki (adenosine deaminase [5]; fixed enzyme-inhibitor complex after rearrangement, read-out: total inhibition constant): 1.7 nM
- inhibition of adenosine deaminase (adenosine deaminase [5]): inhibiting effects both on adenosine deaminase and cGMP-stimulated PDE
- Ki (human ADA): 4 nM
- concentrations of EHNA required to inhibit ADA in intact cells (ADA): much higher concentrations

Structure (SMILES): CCCOc1ccccc1-c1nc2nn[nH]c2c(=O)[nH]1 [2-o-propoxyphenyl-8-azapurine-6-one, 1,4-dihydro-5-(2-propoxyphenyl-7H-1,2,3-triazolo[4,5-d]pyrimidine-7-one)]
- IC50 (PDE I): 8000 nM
- antiarrhythmic action (arrhythmias): strong antiarrhythmic agents
- inhibition of adenosine deaminase (adenosine deaminase [5]): does not inhibit the adenosine deaminase
- solubility in acetone and ethanol and weakly basic solutions ([6]; acetone and ethanol and weakly basic solutions): dissolves in acetone and ethanol and weakly basic solutions
- solubility in water ([6]; water): slightly soluble in water
- effect on cGMP content of the rat aorta [7]: raises the cGMP content
- acute oral LD50 (mouse, rat and rabbit; in vivo, po): 1,400-2,000 mg/kg
- toxicity (mouse, rat and rabbit; in words): low toxicity

Structure (SMILES): Nc1ncnc2c1ncn2[C@@H]1O[C@H](CO)[C@@H](O)[C@H]1O [adenosine]
- Km (adenosine deaminase [5]; substrate of adenosine deaminase): 20 µM

Structure (SMILES): Nc1nc2c(ncn2[C@@H]2O[C@@H]3COP(=O)(O)O[C@H]3[C@H]2O)c(=O)[nH]1 [cGMP]
- effect of cGMP on PDE II activity (cGMP-stimulated PDE II [8]): stimulated
